In patent US20120270928A1, “MICRORNA COMPOUNDS AND METHODS FOR MODULATING MIR-21 ACTIVITY” (REGULUS THERAPEUTICS INC., priority 2011, published 2012):
Values joined by “and” are separate entries in the source; they are usually repeats but may differ in a detail not shown here. Equal values may be shown once.

Legend:
[1] = system: UUO model of kidney fibrosis; experiment: Unilateral ureteral obstruction (UUO) model of kidney fibrosis: kidney collagen 1A1 and collagen 3A1 expression by real-time PCR; type: in vivo, mice; details: UUO
Experimental: Unilateral ureteral obstruction (UUO) is a well-established experimental model of renal injury leading to interstitial fibrosis, and thus is used as an experimental model that is reflective of human kidney disease. UUO is induced by surgically ligating a single ureter. As fibrosis is characterized by an increase in collagen, the presence and extent of kidney fibrosis may be determined by measuring collagen content. Both collagen 1A1 (Col 1A1) and collagen 3A1 (Col 3A1) are measured to assess collagen content. Kidney fibrosis may be visualized by staining tissue samples with picro-sirius red to detect increases in collagen content. Kidney fibrosis may also be observed by measuring the amount of hydroxyproline, which is a major component of collagen, in a sample.
The cEt-containing anti-miR-21 compounds found to be active in the luciferase assay were tested in the UUO model of kidney fibrosis. 25919 comprising 2′-MOE and 2′-fluoro modifications is known to inhibit miR-21 activity in vivo and was included as a positive control. Groups of 8 animals each were treated as follows: UUO only, UUO with PBS, or UUO with anti-miR-21 compound. Relative to the day of the UUO procedure, PBS or anti-miR-21 compound was administered at days −3, −1, and +5. Anti-miR-21 compounds were administered at a dose of 20 mg/kg. As the anti-miR compounds were administered prior to the UUO procedure, this dosing regimen is considered a prophylactic treatment. At day 11, animals were sacrificed and kidney was isolated for measurement of collagen expression. Collagen expression was measured by real-time PCR and normalized first to GAPDH and then to the sham control animals.
The UUO study was repeated to confirm the activity of 25070. The anti-miR was administered subcutaneously at a dose of 20 mg/kg.
(§1) Control treatment groups included UUO only (sham) and UUO with PBS administered subcutaneously. An additional control group included UUO with Tween-MC/20 carrier perorally. 25070 administered subcutaneously at dose of 20 mg/kg at 5 days prior to, 2 days prior to, and 3 days after, the UUO procedure. Irbesartan was administered perorally on daily on days 0 through 7 following the UUO procedure. Animals were sacrificed on Day 10 following the UUO procedure. Kidney tissue was collected for measurement of collagen 1A1 and collagen 3A1 expression.
Compounds 25220 and 25221, as well as 25923, were tested in the UUO model for their effects on fibrosis. Groups of 8 animals each were treated as follows: sham surgery, UUO with PBS, UUO with 25220, UUO with 25221, or UUO with 25923. Relative to the day of the UUO procedure, PBS or anti-miR-21 compound was administered at days −5, −3, and +3. Anti-miR-21 compounds were administered at a dose of 20 mg/kg. As the anti-miR compounds were administered prior to the UUO procedure, this dosing regimen is considered a prophylactic treatment. At day 10, animals were sacrificed and kidney was isolated for measurement of collagen expression. Collagen expression was measured by real-time PCR and normalized to GAPDH.

[2] = system: miR-21; experiment: miR-21 luciferase sensor assay in Hela cells; type: cell-based
Experimental: The compounds were assessed for miR-21 inhibitory activity in a luciferase assay. A microRNA luciferase sensor construct was engineered using pGL3-MCS2 (Promega). The construct was introduced into Hela cells to test the ability of anti-miR compounds to inhibit activity of miR-21. In this assay, miR-21 present in the Hela cells binds to its cognate site(s) in the luciferase sensor construct, and suppresses luciferase expression. When the appropriate anti-miR is introduced into the cells, it binds to miR-21 and relieves suppression of luciferase expression. Thus, in this assay anti-miRs that are effective inhibitors of miR-21 expression will cause an increase in luciferase expression.
Hela cells (ATCC), stably transfected with a luciferase construct engineered to contain a sequence complementary of miR-21, were seeded in T-170 flasks (BD Falcon) at 3.5*10^6 cells/flask. Hela cells were grown in Dulbecco's Modified Eagle Medium with High Glucose (Invitrogen).
Each flask of Hela cells was transfected with 0.5 ug of a phRL sensor plasmid (Promega) expressing Renilla to be used in normalization. Hela cells were transfected using 20 ul Lipofectamine 2000/flask (Invitrogen). After 4 hours of transfection, cells were washed with PBS and trypsinized Hela cells were plated at 40 k/well in 24 well plates (BD Falcon) and left overnight.
Hela cells were transfected with anti-miRs using Lipofectin (Invitrogen) at 2.5 ul Lipofectin/100 nM ASO/ml Opti-MEM I Reduced Serum Medium (Invitrogen) for 4 hours. After ASO transfection, Hela cells were refed with Dulbecco's Modified Eagle Medium with High Glucose (Invitrogen).
Hela cells are passively lysed and luciferase activity measured using the Dual-Luciferase Reporter Assay System (Promega).
The luciferase assay was performed to test the ability of anti-miRs with the nucleoside patterns described herein to inhibit the activity of miR-21. Results were compared to a ‘mock’ treatment, in which cells received no anti-miR treatment. The experiment was repeated and results of two experimental replicates are shown in the following Table B, as the luciferase value normalized to beta-galactosidase activity.
The luciferase assay was performed as described herein to test the ability of anti-miRs in Table F to inhibit the activity of miR-21. Results were compared to a ‘mock’ treatment, in which cells received no anti-miR treatment. The experiment was repeated and results of two experimental replicates are shown in the following Table D, as fold change in luciferase value relative to the mock treatment.

[3] = system: ischemia reperfusion injury/nephrectomy (IR/Nx) model; experiment: Ischemia reperfusion injury/nephrectomy (IR/Nx) model: urinary albumin to creatinine ratio; type: in vivo, mouse; details: for geometric mean of the urinary albumin to creatinine ratio: 20 mg/kg subcutaneously on days 2, 3, 4, and 8, urine on day 9
Source text: An ischemia reperfusion injury/nephrectomy (IR/Nx) model is created in the mouse through temporary unilateral clamping of an artery in one kidney, which leads to tubule damage, inflammation, and fibrosis, followed by removal of the second kidney at a later timepoint. In this model, the acute kidney dysfunction phase is useful to test candidate agents for the treatment of acute kidney injury (i.e. up to about the first 5 days), and the later phases of kidney dysfunction are useful to model chronic fibrosis (i.e. after about the first 5 days).
Unilateral IR was induced for a period of 30 minutes. Treatment groups were as follows: sham IR procedure; IR with PBS administered subcutaneously; IR with mismatched control 25109 administered subcutaneously at a dose of 20 mg/kg; IR with anti-miR-21 compound 25070 administered subcutaneously at a dose of 20 mg/kg; and IR with anti-miR-21 compound 25923 administered subcutaneously at a dose of 20 mg/kg. PBS or anti-miR was administered on days 2, 3, 4, and 8 following IR. On day 8, the healthy kidney was removed by nephrectomy from each animal, and animals were sacrificed on day 9. Just prior to sacrifice, urine was collected by direct bladder puncture.
Urinary albumin to creatinine ratio was measured in the urine from each mouse. […] The geometric mean of the albumin to creatinine ratio in each group of mice was 16 μgAlb/mgCr (nephrectomy-only control), 127 μgAlb/mgCr (IR/Nx, PBS control), 140 μgAlb/mgCr (IR/Nx, 25109 control), 40 μgAlb/mgCr (IR/Nx, 25070), and 31 μgAlb/mgCr (IR/Nx, 25923). Blood urea nitrogen and serum creatinine levels were similar across all IR/Nx mice, and were elevated relative to nephrectomy-only control mice (data not shown).

[4] = system: UUO model of kidney fibrosis; experiment: UUO model: collagen area fraction of kidney tissue (picrosirius red histology); type: in vivo, mice; details: Table N, 25070 20 mg/kg s.c.
Experimental: as §1
The ‘collagen area fraction’ is measured histologically through quantitative image processing of the area of kidney tissue that is stained red by the picrosirius red stain; the percent detected as red is normalized by the area of kidney section.

[5] = In vivo stability of compound in kidney tissue after administration to mice; details: kidney tissue after administration
[6] = Ex vivo liver homogenate stability assay (HPLC-TOF MS); details: 24 hours at 37° C.
[7] = 20 mg/kg at days -5, -3, +3, kidney at day 10
[8] = Table M, individual animals, 25070 20 mg/kg s.c. 5 and 2 days prior to and 3 days after UUO, irbesartan PO daily days 0-7, sacrifice Day 10, 20 mg/kg

AECSATCSAGTCSTGAUSAAGCSTAS (antisense ACATCAGTCTGATAAGCTA; cEt and 2'-MOE nucleosides, code letters not given here, further chemistry not given here) [Compound 25923, variation of 25070: 3′-terminal nucleoside is a cEt nucleoside rather than 2′-MOE nucleoside]
collagen 1A1 expression (FIG. 2A, in words) [1, 7]: reduced collagen 1A1 and collagen 3A1 expression by a stastically significant amount
collagen 3A1 expression (FIG. 2B, in words) [1, 7]: reduced collagen 1A1 and collagen 3A1 expression by a stastically significant amount
inhibition of miR-21 activity in the luciferase assay (in words) ([2]; Hela cells): inhibition of miR-21 in a dose-dependent manner
fold change in luciferase value relative to the mock treatment ([2]; concentration of anti-miR compound 0.2 (unit not given)): 1.06 fold change
fold change in luciferase value relative to the mock treatment ([2]; concentration of anti-miR compound 0.6 (unit not given)): 1.01 fold change
fold change in luciferase value relative to the mock treatment ([2]; concentration of anti-miR compound 1.9 (unit not given)): 1.10 fold change
fold change in luciferase value relative to the mock treatment ([2]; concentration of anti-miR compound 5.6 (unit not given)): 5.18 fold change
fold change in luciferase value relative to the mock treatment ([2]; concentration of anti-miR compound 16.7 (unit not given)): 11.34 fold change
fold change in luciferase value relative to the mock treatment ([2]; concentration of anti-miR compound 50.0 (unit not given)): 10.81 fold change
reduction in urinary albumin to creatinine ratio (significance) ([3]; 20 mg/kg subcutaneously on days 2, 3, 4, and 8): statistically significant reductions
geometric mean of the urinary albumin to creatinine ratio [3]: 31 μgAlb/mgCr

CCCCC1=NC2(CCCC2)C(=O)N1Cc1ccc(-c2ccccc2-c2nnn[nH]2)cc1 [irbesartan, reference compound]
Collagen Area Fraction (%) Mean ([4]; group mean, irbesartan PO, Day 10, UUO-PBS 11.1, Tween/MC vehicle 8.0): 8.0%
Collagen Area Fraction (%) ([4]; individual animals, irbesartan PO daily days 0-7, Day 10, picrosirius red, 20 mg/kg): 6.105% and 7.481% and 15.877% and 7.914% and 6.614% and 5.706% and 7.798% and 6.154%
Collagen 3A1 (Normalized Expression) Mean ([1]; Table M, group mean, 25070 20 mg/kg s.c., irbesartan PO daily days 0-7, Day 10, UUO-PBS 93.2, Tween/MC vehicle 132.4): 73.2
Collagen 1A1 (Normalized Expression) Mean ([1]; Table M, group mean, 25070 20 mg/kg s.c., irbesartan PO daily days 0-7, Day 10, UUO-PBS 129.6, Tween/MC vehicle 150.2): 117.8
Collagen 1A1 (Normalized Expression) [1, 8]: 125.4 and 86.7 and 106.6 and 110.7 and 198.3 and 92.2 and 118.1 and 104.1
Collagen 3A1 (Normalized Expression) [1, 8]: 65.5 and 63.8 and 63.2 and 50.8 and 63.6 and 82.8 and 122.5
reduction in Col3a1 expression (significance) ([1]; comparison with irbesartan, sacrifice Day 10): statistically significant reductions
reduction in Col1A1 expression relative to saline-treated animals (significance) ([1]; comparison with irbesartan, sacrifice Day 10, p<0.05 by one-way ANOVA): did not yield a statistically significant reduction

AEASATCSTGTCSTCAUSAATASAAE [Compound 25109, reference compound]
geometric mean of the urinary albumin to creatinine ratio [3]: 140 μgAlb/mgCr

AECSATCSASGTCSUSGAUSASAGCSUsAE (ACATCAGTCTGATAAGCTA; sugar and backbone modifications) [Compound 25220]
in vivo (kidney) N − 1 (%) ([5]; compound lacking the 3′-terminal nucleoside): 16 ± 6%
in vivo (kidney) N (%) ([5]; full-length compound): 67 ± 16%
ex vivo (liver) N %↓ ([6]; 5 μM oligonucleotide in liver homogenate (50 mg tissue per ml), full-length compound): 3%
ex vivo (liver) % Endo ([6]; 5 μM oligonucleotide in liver homogenate): 3%
ex vivo (liver) % N − 1 ([6]; 5 μM oligonucleotide in liver homogenate, compound lacking the 3′-terminal nucleoside): 0%
